Patent publication US11419806B2, “Prebiotic oral care methods using a saccharide” (Colgate-Palmolive Company, priority 2013, dated 2022)

What was measured:
Assay type in all cases: cell-based
S. sanguinis = experiment: Twenty-four hour optical density growth in BHI
Protocol: (§1) The extent of growth of the tested bacteria in response to selected saccharides (myo-inositol, D-lactitol, D-turanose and N-acetyl-D-mannosamine) was investigated by setting up growth curves in a nutritionally rich medium (brain heart infusion broth (BHI), Oxoid), over 24 hours. Late exponential growth phase liquid cultures were prepared by transferring the respective bacterium from blood agar plates to BHI and overnight incubation at 37° C. in an anaerobic atmosphere for A. viscosus, V. parvula, F. nucleatum, P. gingivalis, P. intermedia, T. forsythia, A. naeslundii, and C. sputigena, and in a 5% CO2 environment for S. salivarius, S. sanguinis, S. mitis, A. actinomycetemcomitans, S. mutans, S. sobrinus and S. gordonii. Overnight cultures were transferred to BHI and adjusted to a concentration of 1×10^7 CFU/ml (colony forming units per ml) by measuring the optical density at 600 nm (OD600) (BioRad SmartSpec 3000). For each strain, 200 μl of the bacterial suspension was added to a 96-well plate containing 20 μl of the respective saccharides. Final concentrations of the saccharides were set to 5, 10, 20 and 25 μmol/ml. […] Plates were incubated as previously described.
(§2) For each combination of bacterium/saccharide, and for each of their respective controls (i.e. the particular bacterium in the nutritionally rich medium with no saccharide), the optical density was measured at 630 nm (OD630) at 0 h and 24 h (Thermo Scientific Multiskan Ascent). Additionally, the OD630 for combinations of bacterium/saccharides grown in a 5% CO2 environment were also measured every hour between 0 h and 9 h.
(§3) The experiment was carried out on three different days (thus providing 3 biological replicas) and on each day the experiment was carried out in quadruple (thus providing 4 technical replicas) for each combination of bacterium with saccharide and for each control. For each day and for each combination, the average (mean) of the values obtained (as detailed above) for the four technical replicas was calculated to provide a single value for each combination on each day. The values shown in Tables 5a,b to 6a,b, below, are the average (mean) of the three single values obtained for each combination of bacterium with saccharide.

Fusobacterium nucleatum [1] = experiment: Twenty-four hour optical density growth in BHI; settings: F nucleatum
Protocol: as §1, §2, §3

Streptococcus mitis = experiment: Phenotype microarray metabolic activity; settings: S mitis
How it was run: (§4)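 Anaerobic 37 °C culture in tetrazolium-containing, nutrient-poor inoculation fluid over saccharide-loaded wells; absorbance at 492 nm recorded on the same plate at 24 and 48 h, averaged over three biological replicates.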

Tannerella forsythia = experiment: Phenotype microarray metabolic activity; settings: T forsythia
How it was run: as §4

Capnocytophaga sputigena = experiment: Phenotype microarray metabolic activity; settings: C sputigena
How it was run: as §4

Streptococcus gordonii = experiment: Phenotype microarray metabolic activity; settings: S gordonii
How it was run: as §4

Fusobacterium nucleatum [2] = experiment: Phenotype microarray metabolic activity; settings: F nucleatum
How it was run: as §4

S sanguinis = experiment: Phenotype microarray metabolic activity
How it was run: as §4

Porphyromonas gingivalis = experiment: Phenotype microarray metabolic activity; settings: P gingivalis
How it was run: as §4

Actinomyces naeslundii = experiment: Phenotype microarray metabolic activity; settings: for metabolic activity: OD 492 nm divided by OD of control (control = 1): A naeslundii
How it was run: as §4

Veillonella parvula = experiment: Phenotype microarray metabolic activity; settings: V parvula
How it was run: as §4

Streptococcus sobrinus = experiment: Phenotype microarray metabolic activity; settings: S sobrinus
How it was run: as §4

SMILES	extent of growth: maximal OD630 over 24 hr divided by maximal OD of control (control = 1) (S. sanguinis; 5 μmol/ml)	extent of growth: maximal OD630 over 24 hr divided by maximal OD of control (control = 1) (S. sanguinis; 10 μmol/ml)	extent of growth: maximal OD630 over 24 hr divided by maximal OD of control (control = 1) (S. sanguinis; 20 μmol/ml)	extent of growth: maximal OD630 over 24 hr divided by maximal OD of control (control = 1) (S. sanguinis; 25 μmol/ml)	extent of growth: maximal OD630 over 24 hr divided by maximal OD of control (control = 1) (Fusobacterium nucleatum [1]; 5 μmol/ml)	extent of growth: maximal OD630 over 24 hr divided by maximal OD of control (control = 1) (Fusobacterium nucleatum [1]; 10 μmol/ml)	extent of growth: maximal OD630 over 24 hr divided by maximal OD of control (control = 1) (Fusobacterium nucleatum [1]; 20 μmol/ml)	extent of growth: maximal OD630 over 24 hr divided by maximal OD of control (control = 1) (Fusobacterium nucleatum [1]; 25 μmol/ml)	metabolic activity: OD 492 nm divided by OD of control (control = 1) (Streptococcus mitis; 24 hrs)	metabolic activity: OD 492 nm divided by OD of control (control = 1) (Streptococcus mitis; 48 hrs)	metabolic activity: OD 492 nm divided by OD of control (control = 1) (Tannerella forsythia; 24 hrs)	metabolic activity: OD 492 nm divided by OD of control (control = 1) (Tannerella forsythia; 48 hrs)	metabolic activity: OD 492 nm divided by OD of control (control = 1) (Capnocytophaga sputigena; 24 hrs)	metabolic activity: OD 492 nm divided by OD of control (control = 1) (Capnocytophaga sputigena; 48 hrs)	metabolic activity: OD 492 nm divided by OD of control (control = 1) (Streptococcus gordonii; 24 hrs)	metabolic activity: OD 492 nm divided by OD of control (control = 1) (Streptococcus gordonii; 48 hrs)	metabolic activity: OD 492 nm divided by OD of control (control = 1) (Fusobacterium nucleatum [2]; 24 hrs)	metabolic activity: OD 492 nm divided by OD of control (control = 1) (Fusobacterium nucleatum [2]; 48 hrs)	metabolic activity: OD 492 nm divided by OD of control (control = 1) (S sanguinis; 24 hrs)	metabolic activity: OD 492 nm divided by OD of control (control = 1) (S sanguinis; 48 hrs)	further results
CC(=O)N[C@H](C=O)[C@@H](O)[C@H](O)[C@H](O)CO [N-acetyl-D-mannosamine, 2-acetamido-2-deoxy-D-mannose]	0.8350	0.8644	0.8219	0.8122	0.9065	0.8477	0.9564	0.9193	3.4298	3.0447	0.9666	0.9443	1.1116	1.0780	1.6021	2.3739	1.0897	1.0886	2.9770	3.0358	metabolic activity: OD 492 nm divided by OD of control (control = 1) (Porphyromonas gingivalis; 24 hrs): 0.7968; metabolic activity: OD 492 nm divided by OD of control (control = 1) (Porphyromonas gingivalis; 48 hrs): 0.8296; metabolic activity: OD 492 nm divided by OD of control (control = 1) (Actinomyces naeslundii; 24 hrs): 1.4397; metabolic activity: OD 492 nm divided by OD of control (control = 1) (Actinomyces naeslundii; 48 hrs): 1.7022; metabolic activity: OD 492 nm divided by OD of control (control = 1) (Veillonella parvula; 24 hrs): 0.9189; metabolic activity: OD 492 nm divided by OD of control (control = 1) (Veillonella parvula; 48 hrs): 0.9284; metabolic activity: OD 492 nm divided by OD of control (control = 1) (Streptococcus sobrinus; 24 hrs): 1.1993; metabolic activity: OD 492 nm divided by OD of control (control = 1) (Streptococcus sobrinus; 48 hrs): 1.1453
OC[C@@H](O)[C@@H](O[C@H]1O[C@H](CO)[C@H](O)[C@H](O)[C@H]1O)[C@H](O)[C@@H](O)CO [D-Lactitol, 4-O-α-D-galactopyranosyl-D-glucitol]	0.8901	0.9323	0.9356	0.9393	0.9876	0.9482	0.9034	0.8805	1.0047	0.9006	1.0703	1.1172	0.9032	1.0097	1.5368	1.7842	0.9115	0.7913	1.0364	1.0188	metabolic activity: OD 492 nm divided by OD of control (control = 1) (Porphyromonas gingivalis; 24 hrs): 0.8216; metabolic activity: OD 492 nm divided by OD of control (control = 1) (Porphyromonas gingivalis; 48 hrs): 1.0092; increase in metabolic activity of A. naeslundii, in words (Actinomyces naeslundii; 24 hrs): marked increase; metabolic activity: OD 492 nm divided by OD of control (control = 1) (Actinomyces naeslundii; 24 hrs): 2.4399; metabolic activity: OD 492 nm divided by OD of control (control = 1) (Actinomyces naeslundii; 48 hrs): 3.3992; metabolic activity: OD 492 nm divided by OD of control (control = 1) (Veillonella parvula; 24 hrs): 0.8079; metabolic activity: OD 492 nm divided by OD of control (control = 1) (Veillonella parvula; 48 hrs): 0.6786; metabolic activity: OD 492 nm divided by OD of control (control = 1) (Streptococcus sobrinus; 24 hrs): 1.4178; metabolic activity: OD 492 nm divided by OD of control (control = 1) (Streptococcus sobrinus; 48 hrs): 1.3908
OC[C@H]1O[C@@](O)(CO)[C@@H](O[C@H]2O[C@H](CO)[C@@H](O)[C@H](O)[C@H]2O)[C@@H]1O [D-Turanose, α-D-glucopyranosyl-(1→3)-α-D-fructofuranose]	0.8399	0.8356	0.8262	0.7991	0.9458	0.9456	0.9285	0.9348	1.2969	1.3856	1.0435	1.1254	0.9893	1.0899	1.7899	2.1615	1.3517	1.6086	1.3458	1.5207	metabolic activity: OD 492 nm divided by OD of control (control = 1) (Porphyromonas gingivalis; 24 hrs): 0.8165; metabolic activity: OD 492 nm divided by OD of control (control = 1) (Porphyromonas gingivalis; 48 hrs): 0.7822; metabolic activity: OD 492 nm divided by OD of control (control = 1) (Actinomyces naeslundii; 24 hrs): 2.1636; metabolic activity: OD 492 nm divided by OD of control (control = 1) (Actinomyces naeslundii; 48 hrs): 2.7551; metabolic activity: OD 492 nm divided by OD of control (control = 1) (Veillonella parvula; 24 hrs): 0.8743; metabolic activity: OD 492 nm divided by OD of control (control = 1) (Veillonella parvula; 48 hrs): 0.7770; metabolic activity: OD 492 nm divided by OD of control (control = 1) (Streptococcus sobrinus; 24 hrs): 1.6552; metabolic activity: OD 492 nm divided by OD of control (control = 1) (Streptococcus sobrinus; 48 hrs): 1.8299
O[C@H]1[C@H](O)[C@@H](O)[C@H](O)[C@@H](O)[C@H]1O [Myo-Inositol, (1R,2R,3S,4S,5R,6S)-cyclohexane-1,2,3,4,5,6-hexol]	0.9429	0.9536	0.8540	0.9077	0.9430	0.9489	0.9512	0.9518	1.0571	0.9877	0.9597	0.9564	0.5471	0.8107	0.8556	0.8202	0.9063	0.8999	0.9436	1.0400	metabolic activity: OD 492 nm divided by OD of control (control = 1) (Porphyromonas gingivalis; 24 hrs): 0.8077; metabolic activity: OD 492 nm divided by OD of control (control = 1) (Porphyromonas gingivalis; 48 hrs): 0.7871; metabolic activity: OD 492 nm divided by OD of control (control = 1) (Actinomyces naeslundii; 24 hrs): 3.8627; metabolic activity: OD 492 nm divided by OD of control (control = 1) (Actinomyces naeslundii; 48 hrs): 4.5573; metabolic activity: OD 492 nm divided by OD of control (control = 1) (Veillonella parvula; 24 hrs): 1.0283; metabolic activity: OD 492 nm divided by OD of control (control = 1) (Veillonella parvula; 48 hrs): 1.0829; metabolic activity: OD 492 nm divided by OD of control (control = 1) (Streptococcus sobrinus; 24 hrs): 0.9699; metabolic activity: OD 492 nm divided by OD of control (control = 1) (Streptococcus sobrinus; 48 hrs): 0.9399
